Laboratory results published in patent US20150140043A1, “IMMUNOMODULATORY METHODS USING NOTCH AGONISTS” (INSTITUT NATIONAL DE LA SANTE DE LA RECHERCHE MEDICAL …, priority 2012, published 2015).

How the values were obtained:
Format in all cases: cell-based, human
[1] = tested on: TGF-βRII RNA expression; assay: Quantitative real-time PCR of TGF-βRII transcripts in CD4+CD25- T cells; conditions: coated anti-CD3 (200 ng/ml) and ligand (5 μg/ml) for 3 hours
Experimental: FIG. 3: TGF-βRII expression on effector T cells after NOTCH ligands exposure • A) CD4^+CD25^−T cells were purified using Miltenyi microbeads from PBMC and cultured for 3 hours in coated wells with anti-CD3 (200 ng/ml) and NOTCH ligands (5 μg/ml) or IgG control (5 μg/ml). Quantitative real-time PCR was performed to measure the transcripts levels of TGF-βRII. Data shown are mean±SEM and are representative of 4 independent experiments. * indicates P<0.05. • B) Protein levels of TGF-βRII in CD4^+CD25^−T cells stimulated to DL-1, DL-4 and Jagged-1 using FACS analysis. Mean of fluorescence are represented±SEM. * indicates P<0.05.
CD4^+CD25^− T cells were cultured for 3 hours in coated wells with anti-CD3 (200 ng/ml) and NOTCH ligands (5 μg/ml) or IgG control (5 μg/ml). Total RNA was extracted with Trizol (Invitrogen) and purified by chloroform extraction. RNA was then reverse transcribed using 1 mM oligodT and the Superscript™ HH Rnase H-reverse transcriptase (Invitrogen Life technologies) according to the manufacturer's instructions. Quantitative PCR was performed in a LightCycler System (Roche diagnostics) using a SYBR Green PCR kit from Roche Diagnostics. The cDNA input for each population was normalized to obtain equivalent signals with Splicing Factor 3A1 (SF3A1) used as housekeeping gene. Primers used were: […]
Active TGF-β mediates its biological functions by binding to TGF-β type I and type II receptors (TGF-βRII). Therefore, the effects of NOTCH activation on TGF-βRII expression of effector T cells were first investigated. […] This effect is abrogated in the presence of GSI (P<0.05 for comparison with culture performed without GSI vehicle).

[2] = tested on: pSmad3; assay: Immunoblot for pSmad3 in CD4+CD25- T cells; conditions: 48 hours on coated ligand in the presence of TGF-β (5 ng/ml)
Experimental: FIG. 4: TGF-βRII function on effector T cells stimulated to NOTCH ligands • A) Western blot analysis was performed on CD4^+CD25^−T cells cultured for 48 hours in coated wells with anti-CD3 (200 ng/ml) and NOTCH ligands (5 μg/ml) in presence of TGF-β (5 ng/ml). The whole cell lysate was analysed by immunoblot for pSmad3 and b-actin was used as loading control. The experiment was repeated twice with similar results. […] Cells were analyzed 48 hours later and data normalized for β-galactosidase activity. Histograms show the luciferase activity in a representative experiment performed in PC12 with TβRII promoter-luciferase construct. The experiment was repeated 3 times with similar results.
CD4^+CD25^− T cells were stimulated with NOTCH Ligand during 2 days. 1 ng/ml of TGF-β was also added during 30 min to induce Smad3 phosphorylation. Cells were collected, washed and lysed with Tris HCL (20 mM) 0.5% SDS buffer in presence of DNase (benzonase), inhibitors of phosphatase and protease. 10 μg proteins were deposed for Western blot Analysis with following Antibodies: Anti-PhosphoSmad3, Smad3, Actine.
Given the above observations showing an upregulation of TGF-βRII following NOTCH activation, the inventors hypothesized that Jagged-1 and DL-4 led to an activation of TGF-β signalling in effector T cells. […]

[3] = tested on: CD4+CD25- T cell proliferation; assay: Sensitization of CD4+CD25- T cells to low-dose TGF-β (anti-CD3 plus NOTCH ligands, no Treg); conditions: anti-CD3 plus ligand (5 μg/ml), TGF-β 0.1 ng/ml, 5 days
Experimental: FIG. 2: NOTCH suppresses the proliferation of CD4^+CD25^− T cells through TGF-β • A) CD4^+CD25^−T cells were cultured for 5 days in coated wells with anti-CD3 and NOTCH ligands (5 μg/ml) or IgG control (5 μg/ml) in the presence of Treg at ratio 1:16. Anti-TGF-β or IgG control mAbs (2.5 μg/ml) were added at the beginning of the co-culture. The data represent the mean±SEM. * indicates P<0.05. • B) CD4^+CD25^−T cells were cultured for 5 days in coated wells with anti-CD3 and NOTCH ligands (5 μg/ml) or IgG control (5 μg/ml). Low dose of TGF-β (0.1 ng/ml) was added. The data represent the mean±SEM.
Peripheral blood mononuclear cells were separated by Ficoll-Hypaque centrifugation (Amersham Biosciences) from buffy coats obtained from healthy blood donors (EFS, Créteil). CD4^+ CD25^− T cells and CD4^+CD25^high T cells were isolated using a CD4^+ T cell enrichment column and a human CD4^+CD25^+ Treg isolation kit purchased from Miltenyi Biotec. CD4^+CD25^− cells and CD4^+CD25^+ cells were enriched to greater than 95% purity. Cells were plated in media at a concentration of 1.25×10^5 to 5×10^5 cells per ml in a 96-well round-bottom plates coated with 1 μg/ml of anti-CD3 (UCHT1) and 5 μg/ml of NOTCH Ligand (DL-1-Fc, DL-4-Fc and Jagged-1-Fc are a generous Gift from Dr. Sakano). […]

## Jagged-1: recombinant NOTCH ligand Jagged-1, used coated as Jagged-1-Fc (SEQ ID NO: 5)
[1]
  TGF-βRII RNA expression, increase compared to IgG control: 2.8 fold
[2]
  pSmad3 signal (immunoblot): strong pSmad3 signal
[3]
  Percentage of inhibition of proliferation in the presence of TGF-β: 87.8%

B1: DL-1: recombinant NOTCH ligand Delta-like 1, used coated as DL-1-Fc (SEQ ID NO: 8) (protein, listed as Homo sapiens)
chain: MGSRCALALAVLSALLCQVWSSGVFELKLQEFVNKKGLLGNRNCCRGGAGPPPCACRTFFRVCLKHYQASVSPEPPCTYGSAVTPVLGVDSFSLPDGGGADSAFSNPIRFPFGFTWPGTFSLIIEALHTDSPDDLATENPERLISRLATQRHLTVGEEWSQDLHSSGRTDLKYSYRFVCDEHYYGEGCSVFCRPRDDAFGHFTCGERGEKVCNPGWKGPYCTEPICLPGCDEQHGFCDKPGECKCRVGWQGRYCDECIRYPGCLHGTCQQPWQCNCQEGWGGLFCNQDLNYCTHHKPCKNGATCTNTGQGSYTCSCRPGYTGATCELGIDECDPSPCKNGGSCTDLENSYSCTCPPGFYGKICELSAMTCADGPCFNGGRCSDSPDGGYSCRCPVGYSGFNCEKKIDYCSSSPCSNGAKCVDLGDAYLCRCQAGFSGRHCDDNVDDCASSPCANGGTCRDGVNDFSCTCPPGYTGRNCSAPVSRCEHAPCHNGATCHERGHRYVCECARGYGGPNCQFLLPELPPGPAVVDLTEKLEGQGGPFPWVAVCAGVILVLMLLLGCAAVVVCVRLRLQKHRPPADPCRGETETMNNLANCQREKDISVSIIGATQIKNTNKKADFHGDHSADKNGFKARYPAVDYNLVQDLKGDDTAVRDAHSKRDTKCQPQGSSGEEKGTPTTLRGGEASERKRPDSGCSTSKDTKYQSVYVISEEKDECVIATEV
[1]
  TGF-βRII RNA expression, increase compared to IgG control: did not significantly modify
[2]
  pSmad3 signal (immunoblot): weak pSmad3 signal
[3]
  Percentage of inhibition of proliferation in the presence of TGF-β: 42.9%
